Data taken from paper PMC6325233, “A Novel Actin Binding Drug with In Vivo Efficacy” (Antimicrobial Agents and Chemotherapy, 2018).
Entries after “also recorded” stand apart in the source; their conditions may differ.

How the values were obtained:
[1] = test system: Trichophyton rubrum 11199; test: MIC susceptibility testing (terbinafine-resistant strain); format: cell-based; conditions: CLSI M38-A2; 96 hours
Description: (§1) Occidiofungin was purified from a liquid culture of Burkholderia contaminans MS14 as previously described ([21]). MIC susceptibility testing was performed according to the CLSI M27-A3 and M38-A2 standards for the susceptibility testing of yeasts and filamentous fungi, respectively. S. cerevisiae deletion mutants were obtained from the commercially available BY4741 deletion library (Thermo Scientific).

Candida tropicalis 9624 = test: MIC susceptibility testing; format: cell-based; parameters: key to MIC, 50% inhibition: -: indicates absence of isolates with 50% inhibition endpoint; conditions: CLSI M27-A3
Description: as §1

Fusarium oxysporum 27718 = test: MIC susceptibility testing; format: cell-based; parameters: key to MIC, 50% inhibition: -: indicates absence of isolates with 50% inhibition endpoint; conditions: CLSI M38-A2
Description: as §1

Fusarium solani 28386 = test: MIC susceptibility testing; format: cell-based; parameters: key to MIC, 50% inhibition: -: indicates absence of isolates with 50% inhibition endpoint; conditions: CLSI M38-A2
Description: as §1

Aspergillus flavus 28445 = test: MIC susceptibility testing; format: cell-based; parameters: key to MIC, 50% inhibition: -: indicates absence of isolates with 50% inhibition endpoint; conditions: CLSI M38-A2
Description: as §1

[2] = cited from earlier work
Description: Occidiofungin is a nonribosomally synthesized glycolipopeptide produced by the soil bacterium Burkholderia contaminans MS14 ([21]). It is a cyclic peptide with a base mass of 1,200 Da (Fig. 1) ([21]). Occidiofungin has a wide spectrum of activities against filamentous and nonfilamentous fungi and minimal toxicity in an animal system ([21], [22]). […] Occidiofungin, on the other hand, is well tolerated at 5 mg/kg or 20 mg/kg when administered intravenously or subcutaneously, respectively ([22], [25]). This dose is much higher than the MIC of occidiofungin against several fungal pathogens. ...

S. cerevisiae Δrdi1 = test: MIC against deletion mutant; format: cell-based; conditions: Rho GDP-inhibitor
Description: as §1

S. cerevisiae Δscp1 = test: MIC against deletion mutant; format: cell-based; conditions: Actin cross linker
Description: as §1

S. cerevisiae Δmyo5 = test: MIC against deletion mutant; format: cell-based; conditions: Actin based motor activity, Type I motor
Description: as §1

S. cerevisiae Δtpm1 = test: MIC against deletion mutant; format: cell-based
Description: as §1

S. cerevisiae Δabp1 = test: MIC against deletion mutant; format: cell-based; conditions: ARP2/3 activator
Description: as §1

S. cerevisiae Δbnr1 = test: MIC against deletion mutant; format: cell-based; conditions: Actin nucleation, Formin
Description: as §1

S. cerevisiae Δarc18 = test: MIC against deletion mutant; format: cell-based; conditions: ARP2/3 subunit
Description: as §1

S. cerevisiae Δsac7 = test: MIC against deletion mutant; format: cell-based; conditions: Rho1-GAP
Description: as §1

S. cerevisiae Δmyo4 = test: MIC against deletion mutant; format: cell-based; conditions: Actin based motor activity, Type V motor
Description: as §1

S. cerevisiae Δtus1 = test: MIC against deletion mutant; format: cell-based; conditions: Rho1p GEF
Description: as §1

S. cerevisiae Δsac6 = test: MIC against deletion mutant; format: cell-based; conditions: Actin bundling, Fimbrin
Description: as §1

S. cerevisiae Δbni1 = test: MIC against deletion mutant; format: cell-based; conditions: Actin nucleation, Formin
Description: as §1

S. cerevisiae Δbem2 = test: MIC against deletion mutant; format: cell-based; conditions: Rho-GAP for the CWI pathway
Description: as §1

S. cerevisiae Δrgl1 = test: MIC against deletion mutant; format: cell-based; conditions: Tus1p cofactor
Description: as §1

S. cerevisiae Δtpm2 = test: MIC against deletion mutant; format: cell-based; conditions: Actin filament binding, Tropomyosin
Description: as §1

S. cerevisiae Δrom1 = test: MIC against deletion mutant; format: cell-based; conditions: Rho1-GEF
Description: as §1

S. cerevisiae Δcap2 = test: MIC against deletion mutant; format: cell-based; conditions: Barbed-end actin capping protein
Description: as §1

S. cerevisiae Δrom2 = test: MIC against deletion mutant; format: cell-based; conditions: Rho1/2-GEF
Description: as §1

[3] = test system: clinically relevant fungi; test: Spectrum of antifungal activity (summary); format: cell-based
Description: as §1

F-actin = test: Actin polymerization and depolymerization assays; format: biochemical; conditions: 20 μg occidiofungin in 20 μL of 1.5% β-cyclodextrin in PBS, pyrene actin

Question: For occidiofungin, which “MIC, 80% inhibition” value [1] is on record?
Answer: 1 µg/mL

Question: What about the “MIC, 100% inhibition” value [1] of the same substance?
Answer: 2 µg/mL

Question: What about the “MIC, 50% inhibition” value (Candida tropicalis 9624; 24 hours) of the same substance?
Answer: -

Question: And the “MIC, 100% inhibition” value (Candida tropicalis 9624; 24 hours)?
Answer: 2 µg/mL

Question: What about the “MIC, 50% inhibition” value (Candida tropicalis 9624; 48 hours) of the same substance?
Answer: -

Question: What about the “MIC, 100% inhibition” value (Candida tropicalis 9624; 48 hours) of the same substance?
Answer: 2 µg/mL

Question: And the “MIC, 50% inhibition” value (Fusarium oxysporum 27718; 24 hours)?
Answer: 2 µg/mL

Question: And the “MIC, 100% inhibition” value (Fusarium oxysporum 27718; 24 hours)?
Answer: 4 µg/mL

Question: What about the “MIC, 50% inhibition” value (Fusarium oxysporum 27718; 48 hours) of the same substance?
Answer: -

Question: What about the “MIC, 100% inhibition” value (Fusarium oxysporum 27718; 48 hours) of the same substance?
Answer: 4 µg/mL

Question: What about the “MIC, 50% inhibition” value (Fusarium solani 28386; 24 hours) of the same substance?
Answer: 2 µg/mL

Question: And the “MIC, 100% inhibition” value (Fusarium solani 28386; 24 hours)?
Answer: 4 µg/mL

Question: What about the “MIC, 50% inhibition” value (Fusarium solani 28386; 48 hours) of the same substance?
Answer: -

Question: And the “MIC, 100% inhibition” value (Fusarium solani 28386; 48 hours)?
Answer: 4 µg/mL

Question: And the “MIC, 50% inhibition” value (Aspergillus flavus 28445; 24 hours)?
Answer: 2 µg/mL

Question: What about the “MIC, 100% inhibition” value (Aspergillus flavus 28445; 24 hours) of the same substance?
Answer: 4 µg/mL

Question: And the “MIC, 50% inhibition” value (Aspergillus flavus 28445; 48 hours)?
Answer: -

Question: And the “MIC, 100% inhibition” value (Aspergillus flavus 28445; 48 hours)?
Answer: 4 µg/mL

Question: What about the “blood cells and blood chemistry” value [2] of the same substance?
Answer: no serious signs of toxicity

Question: What about the “toxicity at 5 mg/kg intravenous” value ([2]; intravenous, 5 mg/kg, mice) of the same substance?
Answer: minimal induced toxicity

Question: And the “well tolerated dose, intravenous” value ([2]; intravenous)?
Answer: 5 mg/kg

Question: What about the “blood chemistry and histopathology” value ([2]; mice, 5 mg/kg intravenous) of the same substance?
Answer: a transient nonspecific stress response with no damage to organ tissues

Question: And the “well tolerated dose, subcutaneous” value ([2]; subcutaneous)?
Answer: 20 mg/kg

Question: And the MIC (S. cerevisiae Δrdi1)?
Answer: 0.25 µg/mL

Question: What about the MIC (S. cerevisiae Δscp1) of the same substance?
Answer: 0.25 µg/mL

Question: And the MIC (S. cerevisiae Δmyo5)?
Answer: 0.25 µg/mL

Question: What about the MIC (S. cerevisiae Δtpm1; Actin filament binding, Tropomyosin) of the same substance?
Answer: 1.0 µg/mL

Question: What about the “resistance to occidiofungin of Δtpm1 mutant” value (S. cerevisiae Δtpm1; vs parent, MIC) of the same substance?
Answer: 4 -fold

Question: What about the MIC (S. cerevisiae Δabp1) of the same substance?
Answer: 0.25 µg/mL

Question: What about the MIC (S. cerevisiae Δbnr1) of the same substance?
Answer: 0.25 µg/mL

Question: What about the MIC (S. cerevisiae Δarc18) of the same substance?
Answer: 0.25 µg/mL

Question: And the MIC (S. cerevisiae Δsac7)?
Answer: 0.25 µg/mL

Question: What about the MIC (S. cerevisiae Δmyo4) of the same substance?
Answer: 0.25 µg/mL

Question: And the MIC (S. cerevisiae Δtus1)?
Answer: 0.25 µg/mL

Question: And the MIC (S. cerevisiae Δsac6)?
Answer: 0.25 µg/mL

Question: What about the MIC (S. cerevisiae Δbni1) of the same substance?
Answer: 0.25 µg/mL

Question: What about the MIC (S. cerevisiae Δbem2) of the same substance?
Answer: 0.25 µg/mL

Question: What about the MIC (S. cerevisiae Δrgl1) of the same substance?
Answer: 0.25 µg/mL

Question: What about the MIC (S. cerevisiae Δtpm2) of the same substance?
Answer: 0.25 µg/mL

Question: What about the MIC (S. cerevisiae Δrom1) of the same substance?
Answer: 0.25 µg/mL

Question: And the MIC (S. cerevisiae Δcap2)?
Answer: 0.25 µg/mL

Question: And the MIC (S. cerevisiae Δrom2)?
Answer: 0.25 µg/mL

Question: What about the “activity against filamentous fungi” value ([3]; Aspergillus, Mucor, Fusarium, Rhizopus, and azole- and terbinafine-resistant Trichophyton) of the same substance?
Answer: active

Question: And the “activity against fluconazole- and caspofungin-resistant Candida” value ([3]; Candida albicans, Candida glabrata, Candida parapsilosis resistant to fluconazole and caspofungin)?
Answer: sensitive to occidiofungin

Question: What about the “activity against caspofungin-resistant strains” value ([3]; Candida parapsilosis and C. neoformans resistant to caspofungin) of the same substance?
Answer: susceptible to treatment with occidiofungin

Question: And the “activity against C. auris” value ([3]; strains of C. auris)?
Answer: sensitive to occidiofungin at submicromolar concentrations

Question: And the “activity against filamentous and nonfilamentous fungi” value ([3]; summary of Table S1)?
Answer: low micromolar inhibitory activity; also recorded: activity against filamentous and nonfilamentous fungi at submicromolar concentrations

Question: And the “spectrum of activities vs other clinically available antifungals” value ([3]; summary of Table S1)?
Answer: broader spectrum of activities

Question: What about the “effect on polymerization or depolymerization of F-actin” value (F-actin) of the same substance?
Answer: no effect on the polymerization or depolymerization properties of F-actin
